In patent publication US20260007717A1, “ANTIMICROBIAL PEPTIDE COMPOUNDS AND METHODS OF USE” (priority 2022, published 2026):
Values after ≈ are worked out from the molar mass of the structure shown. Like-named read-outs stand apart in the source and are kept apart here. Positions of bridges follow the written chain, without caps; N, C: chain ends. Non-standard residues stand in square brackets, D forms with d. Residues, ends and D or L forms follow the SMILES beside them. *: point of attachment. Picolinoyl = O=C(c1ccccn1)*; Aib = CC(C)(N)C(=O)O

What was measured:
[1] = test system: P. gingivalis; format: cell-based
Method: (§1) Briefly, P. gingivalis is grown under anaerobic conditions to mid-log phase as per Dominy et al. […] The microtiter plate method outlined by Jansen (ibid) was used to measure MICs. Compounds and bacteria are added to wells of a microtiter plate and grown anaerobically (P. gingivalis) or with CO2 (L. salivarius) for 24 to 72 hours. Growth is measured with light scattering at 592 nm on a plate reader and absorbance plotted against μg/ml of drug in each well.

[2] = test system: A. baumannii YQ4; experiment: ATP leakage assay; format: cell-based, Acinetobacter baumannii; conditions: 1×MIC, 30 min
Method: ATP leakage assay was performed using the Enhanced ATP Assay Kit of Beyotime (S0027) according to the manufacturer's manual. Briefly, the log-phase culture of A. baumannii YQ4 was prepared, washed and suspended in PBS as above. This suspension was exposed to 16 μg/ml COG1410, 16 μg/ml polymyxin B and 32 μg/ml tigecycline, respectively and incubated at 37° C. for 30 min. The supernatant was harvested and used for measurement of ATP levels. 100 μl of supernatant was mixed with 100 μl working solution and the chemiluminescence was measured by Biotek Synergy H1 plate reader. Untreated sample was set as negative control. The experiments were performed in triplicate.

[3] = test system: A. baumanii YQ4; experiment: Induction of resistance through serial passage; conditions: after 55 passages at sub-MIC
Method: The initial concentration of the tested compounds was set up as 1/32×MIC and doubled every 10 passages. The 1 ml of bacterial culture was stored in 10% sterile glycerol at −80° C. every 5 passages. The MIC value of collected cultures and original strains were measured through the micro-dilution method.

[4] = test system: pan-drug resistant (PDR) Acinetobacter baumannii YQ4; conditions: A. baumannii YQ4, LB broth
[5] = test system: PDR A. baumannii YQ4; experiment: Dynamic time-kill assay in PBS; conditions: 30 min
Method: For dynamic time-kill assay, the overnight culture of A. baumannii YQ4 was transferred to fresh broth with initial OD600 0.01 and grown to the logarithmic phase. 1 ml culture was harvested, washed twice with 1× phosphate-buffered saline (PBS, pH7.4), containing 8 mM NaH2PO4, 2 mM KH2PO4, 2.6 mM KCl, 136 mM NaCl), and finally suspended in 1 ml PBS with OD600 0.5, which approximately corresponds to 1×10^8 CFU/ml. […] 100 μl aliquot was respectively taken at 0, 5, 10 and 30 min, serially diluted in PBS and plated on LB agar. The CFUs were counted after incubation at 37° C. for 18 h. […] Three independent experiments were performed.

[6] = test system: A. baumannii YQ4; conditions: COG1410 combined with polymyxin B
Method: The checkerboard method was performed to determine the fractional inhibitory concentration (FIC) index between COG1410 and other antimicrobials. Two-fold serial dilutions of antimicrobials and COG1410 were conducted and mixed in the 96-well plate. […] The experiments were conducted twice independently.

[7] = test system: E. coli; format: cell-based
[8] = test system: L. salivarius; format: cell-based
Method: as §1

[9] = test system: A. baumannii; conditions: cited from earlier work

| Molecule | MIC P. gingivalis [1] | MIC E. coli [7] | MIC L. salivarius [8] | other results |
| --- | --- | --- | --- | --- |
| CC(C)C[C@@H]1NC(=O)[C@H](CC(C)C)NC(=O)[C@H](CCCNC(=N)N)NC(=O)[C@H](CCCCN)NC(=O)C(C)(C)NC(=O)[C@H](CC(C)C)NC(=O)[C@H](CCCCN)NC(=O)[C@H](CCCNC(=N)N)NC(=O)[C@H](CC(C)C)NC(=O)[C@@H](NC(=O)[C@H](CO)NC(=O)[C@H](C)NC(=O)c2ccccn2)CSSC[C@@H](C(N)=O)NC1=O [SEQ ID NO: 3, Picolinyl-AS-C-LRKL-aib-KRLL-C-amide] (Picolinoyl-ASCLRKL[Aib]KRLLC-NH2; disulfide 3-13) |  |  |  | MIC P. gingivalis ([1]; anaerobic BHI broth): 2 µg/mL (≈ 1.26 µM) |
| polymyxin B [reference compound] |  |  |  | ATP leakage [2]: released more ATP compared to untreated cells; increase of MIC [3]: 64 fold; MIC [4]: 16 µg/mL; reduction in CFU ([5]; 1×MIC): 2 log; reduction in CFU ([5]; 5×MIC): 4 logs; working concentration in the combination [6]: 1 µg/mL |
| CC(=O)N[C@H](CC(C)C)C(=O)N[C@H](CC(C)C)C(=O)N[C@H](CCCNC(=N)N)C(=O)N[C@H](CCCCN)C(=O)NC(C)(C)C(=O)N[C@H](CC(C)C)C(=O)N[C@H](CCCCN)C(=O)N[C@H](CCCCN)C(=O)N[C@H](CC(C)C)C(=O)NC(C)(C)C(=O)N[C@H](CO)C(=O)N[C@H](C)C(N)=O [SEQ ID NO: 5, Acetyl-llrk-Aib-lkkl-Aib-sa-amide] (Ac-[dL][dL][dR][dK][Aib][dL][dK][dK][dL][Aib][dS][dA]-NH2) | 16 µg/mL (≈ 11.6 µM) | 16 µg/mL (≈ 11.6 µM) |  |  |
| CC(=O)N[C@@H](CC(C)C)C(=O)N[C@@H](CC(C)C)C(=O)N[C@@H](CCCNC(=N)N)C(=O)N[C@@H](CCCCN)C(=O)NC(C)(C)C(=O)N[C@@H](CC(C)C)C(=O)N[C@@H](CCCNC(=N)N)C(=O)N[C@@H](CCCCN)C(=O)N[C@@H](CC(C)C)C(=O)NC(C)(C)C(=O)N[C@@H](CO)C(=O)N[C@@H](C)C(=O)N[C@@H](CO)C(=O)NC(C)(C)C(=O)N[C@@H](CC(C)C)C(=O)N[C@@H](CCCNC(=N)N)C(=O)N[C@@H](CCCCN)C(=O)N[C@@H](CC(C)C)C(=O)NC(C)(C)C(=O)N[C@@H](CCCCN)C(=O)N[C@@H](CCCNC(=N)N)C(=O)N[C@@H](CC(C)C)C(=O)N[C@@H](CC(C)C)C(N)=O [SEQ ID NO: 7, Acetyl-LLRK-aib-LRKL-aib-SAS-aib-LRKL-aib-KRLL-CONH2] (Ac-LLRK[Aib]LRKL[Aib]SAS[Aib]LRKL[Aib]KRLL-NH2) | 16 µg/mL (≈ 5.95 µM) | 8 µg/mL (≈ 2.98 µM) | 8 µg/mL (≈ 2.98 µM) |  |
| SAAP-148 |  |  |  | LC99.9 ([9]; 50% pooled plasma): 12.8 UM; LC99.9 ([9]; PBS): 1.6 µM |
| CC(=O)N[C@@H](CC(C)C)C(=O)N[C@@H](CCCNC(=N)N)C(=O)N[C@H](C(=O)N[C@@H](CCCNC(=N)N)C(=O)N[C@@H](CS)C(=O)N[C@@H](C)C(=O)N[C@@H](CO)C(=O)NC(C)(C)C(=O)N[C@@H](CC(C)C)C(=O)N[C@@H](CCCNC(=N)N)C(=O)N[C@@H](CCCCN)C(=O)N[C@@H](CC(C)C)C(=O)NC(C)(C)C(=O)N[C@@H](CCCCN)C(=O)N[C@@H](CCCNC(=N)N)C(=O)N[C@@H](CC(C)C)C(=O)N[C@@H](CC(C)C)C(N)=O)C(C)C [SEQ ID NO: 8, Acetyl-LRVRCAS-aib-LRKL-aib-KRLL-CONH2] (Ac-LRVRCAS[Aib]LRKL[Aib]KRLL-NH2) | 64 µg/mL (≈ 31.4 µM) | 8 µg/mL (≈ 3.93 µM) | 16 µg/mL (≈ 7.86 µM) |  |
| CC(C)C[C@H](NC(=O)[C@H](CC(C)C)NC(=O)[C@H](CCCNC(=N)N)NC(=O)[C@H](CCCCN)NC(=O)C(C)(C)NC(=O)[C@H](CC(C)C)NC(=O)[C@H](CCCCN)NC(=O)[C@H](CCCNC(=N)N)NC(=O)[C@H](CC(C)C)NC(=O)C(C)(C)NC(=O)[C@H](CO)NC(=O)[C@H](C)NC(=O)c1ccccn1)C(N)=O [SEQ ID NO: 2, Picolinyl-AS-aib-LRKL-aib-KRLL-amide] (Picolinoyl-AS[Aib]LRKL[Aib]KRLL-NH2) | 2 to 32 µg/mL | 32 µg/mL (≈ 21.7 µM) | 8 µg/mL (≈ 5.44 µM) |  |
| CC(=O)N[C@@H](CC(C)C)C(=O)N[C@@H](CCCNC(=N)N)C(=O)N[C@H](C(=O)N[C@@H](CCCNC(=N)N)C(=O)N[C@@H](CC(C)C)C(=O)N[C@@H](C)C(=O)N[C@@H](CO)C(=O)N[C@@H](Cc1c[nH]cn1)C(=O)N[C@@H](CC(C)C)C(=O)N[C@@H](CCCNC(=N)N)C(=O)N[C@@H](CCCCN)C(=O)N[C@@H](CC(C)C)C(=O)N[C@@H](CCCNC(=N)N)C(=O)N[C@@H](CCCCN)C(=O)N[C@@H](CCCNC(=N)N)C(=O)N[C@@H](CC(C)C)C(=O)N[C@@H](CC(C)C)C(=O)N[C@@H](C)C(=O)N[C@@H](CO)C(=O)NC(C)(C)C(=O)N[C@@H](CC(C)C)C(=O)N[C@@H](CCCNC(=N)N)C(=O)N[C@@H](CCCCN)C(=O)N[C@@H](CC(C)C)C(=O)NC(C)(C)C(=O)N[C@@H](CCCCN)C(=O)N[C@@H](CCCNC(=N)N)C(=O)N[C@@H](CC(C)C)C(=O)N[C@@H](CC(C)C)C(N)=O)C(C)C [SEQ ID NO: 12, Acetyl-LRVRLASHLRKLRKRLLAS-aib-LRKL-aib-KRLL-CONH2] (Ac-LRVRLASHLRKLRKRLLAS[Aib]LRKL[Aib]KRLL-NH2) | 16 µg/mL (≈ 4.55 µM) | 4 µg/mL (≈ 1.14 µM) | 64 µg/mL (≈ 18.2 µM) |  |
| CC(=O)N[C@H](CC(C)C)C(=O)N[C@H](CC(C)C)C(=O)N[C@H](CCCNC(=N)N)C(=O)N[C@H](CCCCN)C(=O)NC(C)(C)C(=O)N[C@H](CC(C)C)C(=O)N[C@H](CCCCN)C(=O)N[C@H](CCCNC(=N)N)C(=O)N[C@H](CC(C)C)C(=O)NC(C)(C)C(=O)N[C@H](CO)C(=O)N[C@H](C)C(=O)N[C@H](CC(C)C)C(=O)N[C@H](CCCNC(=N)N)C(=O)N[C@@H](C(=O)N[C@H](CCCNC(=N)N)C(=O)N[C@H](CC(C)C)C(N)=O)C(C)C [SEQ ID NO: 11, Acetyl-llrk-aib-lkrl-aib-salrvrl-amide] (Ac-[dL][dL][dR][dK][Aib][dL][dK][dR][dL][Aib][dS][dA][dL][dR][dV][dR][dL]-NH2) |  | 4 µg/mL (≈ 1.95 µM) |  | MIC L. salivarius ([8]; 5% CO2, BHI broth): 16 µg/mL (≈ 7.82 µM); MIC P. gingivalis ([1]; anaerobic BHI broth): 8 µg/mL (≈ 3.91 µM) |
| CC(=O)N[C@@H](CC(C)C)C(=O)N[C@@H](CCCNC(=N)N)C(=O)N[C@H](C(=O)N[C@@H](CCCNC(=N)N)C(=O)N[C@@H](CC(C)C)C(=O)N[C@@H](C)C(=O)N[C@@H](CO)C(=O)NC(C)(C)C(=O)N[C@@H](CC(C)C)C(=O)N[C@@H](CCCCN)C(=O)N[C@@H](CCCCN)C(=O)N[C@@H](CC(C)C)C(=O)NC(C)(C)C(=O)N[C@@H](CCCCN)C(=O)N[C@@H](CCCNC(=N)N)C(=O)N[C@@H](CC(C)C)C(=O)N[C@@H](CC(C)C)C(N)=O)C(C)C [SEQ ID NO: 9, Acetyl-LRVRLAS-aib-LKKL-aib-KRLL-Amide] (Ac-LRVRLAS[Aib]LKKL[Aib]KRLL-NH2) | 8 µg/mL (≈ 3.96 µM) | 4 µg/mL (≈ 1.98 µM) | 4 µg/mL (≈ 1.98 µM) |  |
| CC(=O)N[C@@H](CC(C)C)C(=O)N[C@@H](CC(C)C)C(=O)N[C@@H](CCCNC(=N)N)C(=O)N[C@@H](CCCCN)C(=O)NC(C)(C)C(=O)N[C@@H](CC(C)C)C(=O)N[C@@H](CCCCN)C(=O)N[C@@H](CCCNC(=N)N)C(=O)N[C@@H](CC(C)C)C(=O)NC(C)(C)C(=O)N[C@@H](CO)C(=O)N[C@@H](C)C(N)=O [SEQ ID NO: 4, Acetyl-LLRK-aib-LKRL-aib-SA-CONH2] (Ac-LLRK[Aib]LKRL[Aib]SA-NH2) | 32 µg/mL (≈ 22.7 µM) | 8 µg/mL (≈ 5.68 µM) | 8 µg/mL (≈ 5.68 µM) |  |
| CC(=O)N[C@H](C)C(=O)N[C@H](CO)C(=O)NC(C)(C)C(=O)N[C@H](CC(C)C)C(=O)N[C@H](CCCNC(=N)N)C(=O)N[C@H](CCCCN)C(=O)N[C@H](CC(C)C)C(=O)NC(C)(C)C(=O)N[C@H](CCCCN)C(=O)N[C@H](CCCNC(=N)N)C(=O)N[C@H](CC(C)C)C(=O)N[C@H](CC(C)C)C(N)=O [SEQ ID NO: 6, Acetyl-as-aib-lrkl-aib-krll-amide] (Ac-[dA][dS][Aib][dL][dR][dK][dL][Aib][dK][dR][dL][dL]-NH2) | 8 µg/mL (≈ 5.68 µM) | 8 µg/mL (≈ 5.68 µM) | 8 µg/mL (≈ 5.68 µM) |  |
